“And” between values parts separate entries of the source, which are not always exact repeats. Identical values can stand only once. “Also recorded” adds a separate entry of the source.
How the values were obtained:
human thrombi = experiment: Ex vivo blood flow model: binding to human thrombi, incl. competition with cold compound; settings: ± SEM
Source text: The binding of compounds to thrombi was further investigated in an ex vivo blood flow model similar to that described in “Wakhloo, A. K. et al. Thrombus and stroke 2008, in vitro models 57-66” but modified with regard to thrombus development. Briefly, an open handmade tube-set consisting of tygon-tubes (Tygon R-1000, part N^O AAU00007: I.D. 3.2 mm, O.D. 6.4 mm, Saint Gobain Performance Plastics North America), intermediate tubes (Intrafix® Infusion set, B. Braun, Melsungen, Germany) an open reservoir (10 mL Combitip, Eppendorf) and a chamber made of a piece of polyethylene-Tube, ([…] Polyethylene Tubing, Clay Adams, PE160, length: 6.5 cm) containing a loop of a roughened thread (fishing line: Okuma UltraMax whitefish, diameter: 0.14 mm, length: 5 cm; sandpaper: CAMI Grit designation: 600, CP918a, VSM) was used for thrombus formation. The connection between the intermediate tube and the thrombus chamber was made by trimmed tips (epTIPS, 200 μL, Eppendorff, Hamburg/Germany). The Reservoir and the thrombus chamber were fixed by clamps and stands. A peristaltic-pump (Minipuls 3, Gilson, Middelton/USA) was used to pump the blood around thereby adjusting the flow in the middle of the thrombus chamber to 70-90 cm per second, which was monitored by ultrasound Doppler measurement (Vevo 770 High-Resolution In Vivo Micro-Imaging System, VisualSonics, TorontoOntario, Canada; Scanhead: RMV 704, 40 MHz). The volume of the entire tube-set was 7.5 or 15 mL.
For each experiment fresh blood was taken from a volunteer using 10 mL citrate-tubes (Sarstedt S-Monovette 02.1067.001, 10 mL, Citrate 3.13%) and immediately laid into the turning-device of an incubator at a temperature of 37° C. (Heraeus miniTherm CTT with integrated rotation- and turning device, turning speed: 19 rotations per minute, Heraeus Instruments GmbH, Hanau/Germany). As needed, two tubes were taken out of the turning-device and 15 mL were transferred to a 20 mL Syringe (Omnifix®, B. Braun, Melsungen/Germany) and gently mixed with 0.75 mL CaCl2-Solution before the peristaltic pump was started and the whole content of the syringe was transferred into the reservoir of the tube-set via a cell strainer (BD Falcon™ cell strain, 40 μm, BD, Franklin Lakes, N.J. USA). After 7 minutes 1 MBq or 0.5 MBq (15 mL or 7.5 mL) of the compound was added to the reservoir by means of a pipette, thereby mixing the content gently with the tip of the pipette. The blood was left circulating for another 3 minutes. Then, the pump was stopped, aliquots were taken from the blood and the thrombus together with the roughened thread was removed from the thrombus-chamber before both was weighted and measured in a gamma counter (Automatic Gamma Counter Wizard^2 3, Perkin Elmer). Then the thrombus together with the thread was incubated in Plasmin-solution (Plasmin from Human Plasma, Sigma Aldrich, stock-solution: 500 μg in 500 μL 150 μM Tris-buffer (pH 7.8), 20 μL stock-solution to 230 μL saline solution 0.9%) for 48 hours to separate the platelets from the thread and to determine the netto weight of the thrombus. Finally the activity of the compound in blood and thrombus as well as the ratio between both was determined (cpm/weight [mg]).
To verify the specificity of the compound, a competition experiment was conducted in which the cold compound was added to the reservoir together with the hot compound. The final plasma concentration of the cold compound was 2.8 μM.

[1] = Blood clearance in a cynomolgus monkey (PET and gamma counter); format: in vivo
Experimental: Blood kinetics of the compound described in example 40 in cynomolgus monkey. PET-imaging was performed continuously from shortly before up to 60 minutes post injection. Venous blood samples were taken at 3, 10, 30 and 60 minutes p.i. and were measured in a gamma-counter (Automatic Gamma Counter Wizard^2 3, Perkin Elmer) and expressed as cpm/mg blood. Additionally, the blood-concentration of the compound was measured from the PET-Image over the whole imaging period and expressed as % ID/g.
The blood clearance of the compound described in example 40 has been determined in a cynomolgus monkey. A female cynomolgus monkey was anesthetized with a mixture of Xylazin (Rompun®, Bayer HealthCare, Leverkusen, Germany), 0.12 mL/kg bodyweight and Ketamine (Ketavet®, Pfizer) 0.12 mL/kg bodyweight i.m. The monkey was placed inside the PET-scanner (Inveon PET/CT, Siemens Medical, Erlangen) and 25 MBq of the compound has been injected i.v. while PET-imaging was performed continuously from shortly before up to 60 minutes post injection. Venous blood samples were taken at 3, 10, 30 and 60 minutes p.i. and were measured in a gamma-counter (Automatic Gamma Counter Wizard^2 3, Perkin Elmer). Additionally, the blood-concentration of the compound was measured from the PET-Image over the whole imaging period (FIG. 4).

[2] = system: arterial and venous thrombi; experiment: Thrombus PET imaging and in vivo clot-to-blood ratio in cynomolgus monkeys; design: species or system cynomolgus monkey
Experimental: The ability of the compound described in example 40 for the imaging of thrombi was investigated in a PET-study with cynomolgus monkeys (female, 2.8-3.2 kg).
The first monkey was anesthetized with a mixture of Xylazin (Rompun®, Bayer HealthCare, Leverkusen, Germany), 0.12 mL/Kg and Ketamine (Ketavet®, Pfizer) 0.12 mL/Kg b.w. i.m. and additionally analgesized by an i.m. injection of 6 μg Buprenorphine per kg. While the investigation, small amounts of Ketamine have been injected i.m. if required. The left common carotid artery was exposed surgically and a polyethylene-tube ([…] Polyethylene Tubing, Clay Adams, PE50), which was roughened previously by sandpaper (600—CAMI Grit designation), was inserted into the vessel, advanced into the descending aorta and was left there for 30 minutes to allow for the development of a thrombus on the rough surface of the tube. Meanwhile, the monkey was placed inside the PET-scanner (Inveon PET/CT, Siemens Medical, Erlangen). […] The thickness of this layer was far below 1 mm (see also removed thrombus of Monkey 2, FIG. 7) and therewith also far below the resolution of the image, which is approximately 1 mm. This also means, that even slightest thrombi, even if their size is far less than the resolution of the imaging-device, can be visualized due to the massive accumulation of compound on the platelets of the thrombi. At the end of the experiment the tube was removed carefully from the vessel before it was weighted and measured in a gamma counter (Automatic Gamma Counter Wizard^2 3, Perkin Elmer). Then the thrombus together with the tube was incubated in Plasmin-solution (Plasmin from Human Plasma, Sigma Aldrich, Plasmin-stock-solution: 500 μg Plasmin in 500 μL Tris-buffer (150 μM, pH 7.8), 20 μL Plasmin-stock-solution to 230 μL saline solution 0.9%) for 48 hours to separate the platelets from the tube and to determine the netto weight of the thrombus. Finally the activity of the compound in blood and thrombus as well as the ratio between the two was determined (cpm/weight [mg]).
The experiment was repeated with the same compound in another monkey with a slightly different preparation of the thrombogenic tube: This tube was roughened at only two short sections with a gap in between. Apart from that, the experimental design including the determination of the in vivo clot-to-blood ratio was as described above for monkey 1.
The experiment was repeated with the same compound in another monkey, but with the reduced dose of 15 MBq for the whole animal. In addition to the arterial catheter, this animal also received a venous catheter, also made of PE50-catheter-tube and roughened at some parts with gaps in between as described above. […]
The in vivo clot-to-blood ratio was determined from 5 thrombi out of the above described monkey experiments. As already mentioned above the thrombi had been removed from the vessels after imaging and had been weighted and measured in a gamma-counter (Automatic Gamma Counter Wizard^2 3, Perkin Elmer) together with blood samples taken from the animal. After incubation of the thrombi in Plasmin (Plasmin from Human Plasma, Sigma Aldrich, Plasmin-stock-solution: 500 μg Plasmin in 500 μL Tris-buffer (150 μM, pH 7.8), 20 μL Plasmin-stock-solution to 230 μL saline solution 0.9%) and removal of the thrombi from the catheter tubes, the netto weight of the thrombi was calculated and the concentration of the compound in thrombus (clot) and blood, as well as the ratio between the two was calculated.

- contrast in the brain ([1]; PET): completely free of contrast
- Blood ([2]; blood sample of the animal, Cynomolgus monkey): 90 cpm/mg and 130 cpm/mg and 100 cpm/mg
SMILES: O=C(O)C[C@H](NC(=O)[C@@H]1CCCN(C(=O)CCC2CCNCC2)C1)c1cncc(OCC[18F])c1 [Example 40, (3S)-3-[5-(2-[^18F]Fluoroethoxy)pyridin-3-yl]-3-[({(3R)-1-[3-(piperidin-4-yl)propanoyl]piperidin-3-yl}carbonyl)amino]propanoic acid]
- in vitro clot-to-blood ratio (human thrombi; 3 minutes post-injection of 18F-labeled compound): 71 ± 4 (n = 3)
- Accumulation Thrombus (human thrombi; 3 minutes post-injection of 18F-labeled compound, without cold compound): 202 ± 11 (n = 3) 10^3 cpm/mg
- Thrombus competition (human thrombi; cold compound added with hot compound, final plasma concentration 2.8 μM, 3 minutes): 8 ± 1 (n = 3) 10^3 cpm/mg
- blood clearance ([1]; 25 MBq i.v., up to 60 minutes p.i.): rapidly cleared from the blood; also recorded: rapidly eliminated from the blood
- signal in other tissue ([1]; PET): only marginal signal visible in any other tissue
- retention within the thrombus ([2]; 60 minutes were shown): almost completely remains within the thrombus
- Clot/Blood mean (in vivo clot-to-blood ratio) ([2]; mean of 5 thrombi, sd 52): 126+/−52 and 126
- background in surrounding tissue or organ ([2]; monkeys, PET): almost no background in any surrounding tissue or organ
- accumulation in venous and arterial thrombi ([2]; monkeys, PET, 15-25 MBq i.v.): surprisingly high accumulation
